Consider three compounds from patent US20060240098A1, “Formulations for hyperforin-enriched hypericum fractions” (Aphios Corporation, priority 2004, published 2006).

The target in the assay is serotonin reuptake (Rattus norvegicus, UniProt P31652). The assay can be described thus: in vitro serotonin reuptake inhibition assay (Paracelsian). It counts as biochemical.

Where a name gives a salt, the structure may show the parent alone.

Chain of serotonin reuptake (P31652 whole entry): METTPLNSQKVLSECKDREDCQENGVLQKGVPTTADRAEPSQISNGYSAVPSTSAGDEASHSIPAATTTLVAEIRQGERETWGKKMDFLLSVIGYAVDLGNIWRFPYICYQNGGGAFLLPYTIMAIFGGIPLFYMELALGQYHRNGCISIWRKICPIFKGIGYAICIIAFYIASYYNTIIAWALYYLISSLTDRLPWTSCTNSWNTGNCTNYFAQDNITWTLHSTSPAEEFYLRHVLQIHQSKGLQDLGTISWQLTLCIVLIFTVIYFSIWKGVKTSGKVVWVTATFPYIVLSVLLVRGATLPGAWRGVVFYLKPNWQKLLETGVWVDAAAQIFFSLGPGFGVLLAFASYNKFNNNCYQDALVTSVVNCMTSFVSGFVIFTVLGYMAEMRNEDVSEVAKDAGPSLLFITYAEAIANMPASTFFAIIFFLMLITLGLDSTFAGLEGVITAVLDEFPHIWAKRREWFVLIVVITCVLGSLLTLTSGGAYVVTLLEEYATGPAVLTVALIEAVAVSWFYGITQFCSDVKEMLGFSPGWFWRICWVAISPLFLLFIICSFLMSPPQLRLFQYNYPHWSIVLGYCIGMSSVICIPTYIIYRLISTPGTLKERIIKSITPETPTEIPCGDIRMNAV
Experimental: The bioassay was performed in quadruplicate by Paracelsian, Inc., Ithaca, N.Y. and were all in compliance with our standard operating protocols, having a standard deviation less than ±5%.

As for `CN(C)CCCN1c2ccccc2CCc2ccccc21` [Imipramine (Sigma), imipramine hydrochloride], the “Serotonin Reuptake Inhibition (%)” value (sample weight 65 ng) worked out at 38.3%. Take `Cc1cc(O)c2c(=O)c3c(O)cc(O)c4c5c(O)cc(O)c6c(=O)c7c(O)cc(C)c8c1c2c(c34)c(c78)c65` [Hypericin (Sigma), hypericin]: the “Serotonin Reuptake Inhibition (%)” value (sample weight 2 μg) is reported as 0.0%. Still for that read-out and setting: for hyperforin [Hyperforin (Aphios)] the value was 80.3%.
